Source: patent publication US20260217708A1, “FUSED BENZAZEPINE DERIVATIVES FOR USE IN THE TREATMENT OF CANCER AND EPILEPSY” (UCB BIOPHARMA SRL, priority 2023, published 2026)

Key:
system Xc^− [1] = biological target: T1, system Xc^− (Homo sapiens, UniProt Q9UPY5); test: Cystine-induced glutamate release assay; assay type: cell-based; set-up: endogenous in cells; host or cells: H4 cells; conditions: H4 cells, sodium-free HEPES buffer, 50 μM L-Cystine, 2 hours, Amplex Red glutamate readout; read-out: pIC50 Cystine-induced glutamate release assay (converted)
T1 sequence (Q9UPY5 1-501): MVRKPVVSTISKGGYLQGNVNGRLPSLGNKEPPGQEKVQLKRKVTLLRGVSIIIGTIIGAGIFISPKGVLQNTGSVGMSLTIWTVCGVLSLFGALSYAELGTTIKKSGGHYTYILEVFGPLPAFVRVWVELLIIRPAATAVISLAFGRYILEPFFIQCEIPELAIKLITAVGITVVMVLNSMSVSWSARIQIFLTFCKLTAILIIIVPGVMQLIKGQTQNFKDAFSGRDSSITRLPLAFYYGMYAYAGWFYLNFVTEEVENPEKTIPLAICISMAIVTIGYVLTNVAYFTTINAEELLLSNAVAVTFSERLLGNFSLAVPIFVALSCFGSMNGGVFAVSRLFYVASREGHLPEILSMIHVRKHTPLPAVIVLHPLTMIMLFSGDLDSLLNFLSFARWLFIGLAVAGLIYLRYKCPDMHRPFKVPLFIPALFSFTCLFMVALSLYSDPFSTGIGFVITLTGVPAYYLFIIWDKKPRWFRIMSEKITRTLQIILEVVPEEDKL
T1 sequence (P08195 1-529 partner): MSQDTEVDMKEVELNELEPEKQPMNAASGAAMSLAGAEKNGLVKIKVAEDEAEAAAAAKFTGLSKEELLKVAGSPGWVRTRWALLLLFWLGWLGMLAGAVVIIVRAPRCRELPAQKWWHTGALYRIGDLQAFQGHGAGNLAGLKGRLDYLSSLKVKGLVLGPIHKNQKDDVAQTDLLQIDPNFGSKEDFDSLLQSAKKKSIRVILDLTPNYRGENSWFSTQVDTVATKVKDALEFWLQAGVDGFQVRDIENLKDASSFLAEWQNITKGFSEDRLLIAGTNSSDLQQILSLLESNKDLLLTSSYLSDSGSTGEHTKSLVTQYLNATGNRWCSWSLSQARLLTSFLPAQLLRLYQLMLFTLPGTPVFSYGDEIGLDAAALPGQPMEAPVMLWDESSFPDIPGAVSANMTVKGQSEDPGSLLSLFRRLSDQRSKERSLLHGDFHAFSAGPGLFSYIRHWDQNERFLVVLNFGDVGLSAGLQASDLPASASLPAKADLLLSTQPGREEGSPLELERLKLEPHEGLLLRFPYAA
From the text: (§1) The effect of compounds of Formula (I) on the system Xc^− functionality was examined in two independent cell assays: (i) measurement of cystine-induced glutamate release; and (ii) measurement of [^14C]L-Cystine uptake.
(§2) As described above, System Xc^−, also known as the cystine/glutamate antiporter, is an amino acid transporter that mediates the extrusion of intracellular L-glutamate outside the cell and the uptake of extracellular L-cystine into the cell.
(§3) By measuring respectively, the concentration of glutamate released outside the cell and the L-cystine uptaken in the cell, with increasing concentrations of compounds of formula (I) according to the present invention, the efficacy of said compounds to inhibit the System Xc^− function can be evaluated.
(§4) The efficacy of the compounds to inhibit system Xc^− is represented by measuring the IC50 which corresponds to the concentration of compound necessary to inhibit 50% of the signals from the two control groups; DMSO 1% and Erastin 50 μM in the respective assays. pIC50 values correspond to −log of the IC50 in Molar.
Measurement of cystine-induced glutamate release indicates levels of glutamate (outside of the cell) that are dependent on system Xc^− antiporter function. Upon the addition of L-Cystine to H4 cells, intracellular glutamate is counter-transported and exported in the supernatant.
In this assay, the medium is devoid of sodium to prevent the transport of glutamate by sodium-dependent excitatory amino acid transporters (EAATs). H4 cells were plated on 384-well culture plate at 1×10^4 cells/well in Dulbecco's Modified Eagle Medium (DMEM) with L-glutamine, penicillin/streptomycin and 10% fetal bovine serum (all from ThermoFisher Scientific) and incubated in a humidified CO2 incubator at 37° C. After 2 days, cells were washed 4 times with prewarmed sodium-free HEPES buffer (contents in mM: HEPES 10, KCl 5.4, CaCl2 2.5, MgCl2 1, KH2PO4 0.4, D-Glucose 5, Choline chloride 140), pH 7.4. Glutamate release was induced by addition of 50 μM of L-Cystine (Sigma-Aldrich), together with a test compound of Formula (I) at 1% final DMSO concentration. After 2 hours of incubation in the culture incubator, supernatants were transferred to a low-binding polypropylene 384-well plate to determine L-glutamate concentration using Amplex™ Red Glutamic Acid Assay Kit (ThermoFisher Scientific). Briefly, 10 μL of Amplex™ Red working solution was added to 10 μL of the supernatant, then the mixture was incubated for 30 min at 37° C. Fluorescence intensity was measured by EnVision microplate reader (PerkinElmer).

system Xc^− [2] = biological target: T1, system Xc^−; test: [^14C]L-Cystine uptake assay; assay type: cell-based; set-up: endogenous in cells; host or cells: H4 cells; conditions: H4 cells, sodium-free HEPES buffer, 0.5 μM L-[14C]Cystine and 4.5 μM L-Cystine, 1 hour at 37° C.; read-out: pIC50 [^14C] L-Cystine uptake assay (converted)
From the text: as §1, §2, §3, §4
In this assay, the medium is devoid of sodium to prevent the transport of glutamate by sodium-dependent excitatory amino acid transporters (EAATs). H4 cells were plated on a 96-well CytoStar-T scintillating microplate (PerkinElmer) at 5×10^4 cells/well in the medium described above. After 1 day, cells were washed one time with the sodium-free HEPES buffer and preincubated with test compounds of Formula (I) (1% final DMSO) for 15 min. Uptake was initiated by adding 0.5 μM L-[1,2, 1′,2′-^14C]Cystine (0.02 mCi/mL, PerkinElmer, Waltham, US) and 4.5 μM L-Cystine (Sigma-Aldrich). After 1 hour at 37° C., plates were counted in a MicroBeta^2 microplate counter (PerkinElmer).

Cc1cc2c(cn1)-c1ccnn1C(C)C(=O)N2CC(=O)Nc1ccc(Cl)c(F)c1 (single isomer, unassigned) [#186, enantiomer (7S) or (7R) of N-(4-chloro-3-fluoro-phenyl)-2-[7,12-dimethyl-8-oxo-5,6,9,13-tetrazatricyclo[8.4.0.0^2,6]tetradeca-1(10),2,4,11,13-pentaen-9-yl]acetamide]
IC50 (system Xc^− [1]): 15.8 to 39.8 nM
IC50 (system Xc^− [2]): 39.8 to 100 nM

COc1cc2c(cn1)-c1cccnc1C(C)C(=O)N2CC(=O)Nc1ccc(C(F)F)cc1 (single isomer, unassigned) [#319, N-[4-(difluoromethyl)phenyl]-2-[5-methoxy-10-methyl-9-oxo-4,8,12-triazatricyclo[9.4.0.0^2,7]pentadeca-1(15),2(7),3,5,11,13-hexaen-8-yl]acetamide]
IC50 (system Xc^− [1]): 15.8 to 39.8 nM
IC50 (system Xc^− [2]): 39.8 to 100 nM

Cc1cc2c(c(C#N)n1)-c1cccnc1C(C)C(=O)N2CC(=O)Nc1ccc(Cl)c(F)c1 (single isomer, unassigned) [#155, N-(4-chloro-3-fluoro-phenyl)-2-[3-cyano-5,10-dimethyl-9-oxo-4,8,12-triazatricyclo[9.4.0.0^2,7]pentadeca-1(11),2(7),3,5,12,14-hexaen-8-yl]acetamide]
IC50 (system Xc^− [1]): < 15.8 nM
IC50 (system Xc^− [2]): < 15.8 nM

Cc1cc2c(nc1C)-c1ccccc1CC(=O)N2CC(=O)Nc1ccc(C(F)(F)F)cc1 [#15, 2-(2,3-dimethyl-6-oxo-7H-pyrido[3,2-d][3]benzazepin-5-yl)-N-[4-(trifluoro-methyl)phenyl] acetamide]
IC50 (system Xc^− [1]): 100 to 501 nM
IC50 (system Xc^− [2]): 15.8 to 39.8 nM

Cc1cc2c(c(F)n1)-c1cccnc1[C@@H](C)C(=O)N2CC(=O)Nc1ccc(I)cc1 [#138, 2-[(10R)-3-fluoro-5,10-dimethyl-9-oxo-4,8,12-triazatricyclo[9.4.0^2,7]pentadeca-1(11),2(7),3,5,12,14-hexaen-8-yl]-N-(4-iodophenyl)acetamide]
IC50 (system Xc^− [1]): < 15.8 nM
IC50 (system Xc^− [2]): < 15.8 nM

COC1C(=O)N(CC(=O)Nc2ccc(C(F)(F)F)cc2)c2cc(C)nc(Cl)c2-c2ccccc21 (centres unmarked) [#107, 2-(1-chloro-7-methoxy-3-methyl-6-oxo-7H-pyrido[3,4-a][3]benzazepin-5-yl)-N-[4-(trifluoromethyl)phenyl]acetamide]
IC50 (system Xc^− [1]): 15.8 to 39.8 nM
IC50 (system Xc^− [2]): < 15.8 nM

COc1cc2c(cn1)-c1cccnc1C(C)C(=O)N2CC(=O)Nc1ccc(Cl)c(F)c1 (single isomer, unassigned) [#320, N-(4-chloro-3-fluoro-phenyl)-2-[5-methoxy-10-methyl-9-oxo-4,8,12-triazatricyclo[9.4.0.0^2,7]pentadeca-1(15),2(7),3,5,11,13-hexaen-8-yl]acetamide]
IC50 (system Xc^− [1]): 15.8 to 39.8 nM
IC50 (system Xc^− [2]): 15.8 to 39.8 nM

Cc1cc2c(c(F)n1)-c1cccnc1C(C)C(=O)N2CC(=O)Nc1ccc(C2CC2)c(F)c1 (centres unmarked) [#135, N-(4-cyclopropyl-3-fluoro-phenyl)-2-(3-fluoro-5,10-dimethyl-9-oxo-4,8,12-triazatricyclo[9.4.0.0^2,7]pentadeca-1(11),2(7),3,5,12,14-hexaen-8-yl)acetamide]
IC50 (system Xc^− [1]): 15.8 to 39.8 nM
IC50 (system Xc^− [2]): < 15.8 nM

N#Cc1c(F)ccc2c1-c1cccnc1CC(=O)N2CC(=O)Nc1ccc(C(F)(F)F)cc1 [#68, 2-(11-cyano-10-fluoro-6-oxo-5H-pyrido[2,3-d][1]benzazepin-7-yl)-N-[4-(trifluoromethyl)-phenyl]acetamide]
IC50 (system Xc^− [1]): 39.8 to 100 nM
IC50 (system Xc^− [2]): 39.8 to 100 nM

Cc1cc2c(c(F)n1)-c1cc(F)cnc1[C@H](C)C(=O)N2CC(=O)Nc1ccc(Cl)c(F)c1 (single isomer, unassigned) [#260]
IC50 (system Xc^− [1]): < 15.8 nM
IC50 (system Xc^− [2]): < 15.8 nM

CC1C(=O)N(CC(=O)Nc2ccc(C(F)(F)F)cc2)c2cn(C)c(=O)c(F)c2-c2cccnc21 (single isomer, unassigned) [#184, enantiomer (10R) or (10S) of 2-(3-fluoro-5,10-dimethyl-4,9-dioxo-5,8,12-triazatricyclo[9.4.0.0^2,7]pentadeca-1(11),2,6,12,14-pentaen-8-yl)-N-[4-(trifluoromethyl)phenyl]acetamide]
IC50 (system Xc^− [1]): 15.8 to 39.8 nM
IC50 (system Xc^− [2]): < 15.8 nM

CC1C(=O)N(CC(=O)Nc2ccc(C(F)F)cc2)c2cc(OC(F)F)nc(Cl)c2-c2cccnc21 (single isomer, unassigned) [#416, 2-[3-chloro-5-(difluoromethoxy)-10-methyl-9-oxo-4,8,12-triazatricyclo[9.4.0.0^2,7]pentadeca-1(15),2,4,6,11,13-hexaen-8-yl]-N-[4-(difluoromethyl)phenyl]acetamide]
IC50 (system Xc^− [1]): 15.8 to 39.8 nM
IC50 (system Xc^− [2]): < 15.8 nM

COc1cc2c(c(C)n1)-c1cccnc1C(C)C(=O)N2CC(=O)Nc1ccc(Cl)c(F)c1 (single isomer, unassigned) [#300, N-(4-chloro-3-fluoro-phenyl)-2-[5-methoxy-3,10-dimethyl-9-oxo-4,8,12-triazatricyclo[9.4.0.0^2,7]pentadeca-1(15),2(7),3,5,11,13-hexaen-8-yl]acetamide]
IC50 (system Xc^− [1]): < 15.8 nM
IC50 (system Xc^− [2]): < 15.8 nM

Cc1cc2c(c(F)n1)-c1cccnc1C(C)C(=O)N2CC(=O)Nc1ccc(C(F)(F)F)cc1 (centres unmarked) [#84, 2-(3-fluoro-5,10-dimethyl-9-oxo-4,8,12-triazatricyclo[9.4.0.0^2,7]pentadeca-1(11),2(7),3,5,12,14-hexaen-8-yl)-N-[4-(trifluoromethyl)phenyl]acetamide]
IC50 (system Xc^− [1]): 15.8 to 39.8 nM
IC50 (system Xc^− [2]): < 15.8 nM

Cc1cc2c(c(C)n1)-c1cccnc1CC(=O)N2CC(=O)Nc1ccc(C(F)(F)F)cc1 [#57, 2-(3,5-dimethyl-9-oxo-4,8,12-triazatricyclo[9.4.0.0^2,7]pentadeca-1(11),2(7),3,5,12,14-hexaen-8-yl)-N-[4-(trifluoromethyl)phenyl]acetamide]
IC50 (system Xc^− [1]): 15.8 to 39.8 nM
IC50 (system Xc^− [2]): 15.8 to 39.8 nM

C[C@H]1C(=O)N(CC(=O)Nc2ccc(C(F)F)cc2)c2cc(N3CC4C(C3)C4(F)F)nc(F)c2-c2cccnc21 (single isomer, unassigned) [#289, 2-[5-(6,6-difluoro-3-azabicyclo[3.1.0]hexan-3-yl)-3-fluoro-10-methyl-9-oxo-4,8,12-triazatricyclo[9.4.0.0^2,7]pentadeca-1(11),2(7),3,5,12,14-hexaen-8-yl]-N-[4-(difluoromethyl)phenyl]acetamide]
IC50 (system Xc^− [1]): 15.8 to 39.8 nM
IC50 (system Xc^− [2]): < 15.8 nM
